Test results taken from patent US7612238B2, “Amino-propanol derivatives” (Novartis AG, priority 2002, dated 2009).
Where a name gives a salt, the structure may show the parent alone.

Legend:
[1] = test system: peripheral blood lymphocytes; assay: In vivo: blood lymphocyte depletion; conditions: rats, p.o.
Protocol: B. In Vivo: Blood Lymphocyte Depletion
A compound of formula I or the vehicle is administered orally by gavage to rats. Tall blood for hematological monitoring is obtained on day −1 to give the baseline individual values, and at 2, 6, 24, 48 and 72 hours after application. In this assay, the compounds of formula I deplete peripheral blood lymphocytes when administered at a dose of 0.03 to 3 mg/kg.

[2] = target: T1, human S1P receptors (S1P5) (Homo sapiens, UniProt Q9H228); assay: S1P receptor profiling, GTP[γ-35S] binding SPA, S1P5; assay type: biochemical; parameters: key to S1P5 mode of action (Agon = agonist): Agon = agonist; conditions: for EC50: GTP[γ-35S] binding, membranes of transfected CHO or RH7777 cells; for S1P5 mode of action (Agon = agonist): column beside S1P5 EC50
T1 construct: expressed in transfected cells
Protocol: (§1) The compounds of formula I have binding affinity to individual human S1P receptors as determined in following assays:
(§2) Sphingosine-1-Phosphate (S1P) Receptor Profiling
(§3) Agonist activities of compounds are tested on the human S1P receptors (S1P1), (S1P3), (S1P2), (S1P4) and (S1P5). […] The assay technology used is SPA (scintillation proximity based assay). Briefly, DMSO dissolved compounds are serially diluted and added to SPA-bead (Amersham-Pharmacia) immobilised S1P receptor expressing membrane protein (10-20 μg/well) in the presence of 50 mM Hepes, 100 mM NaCl, 10 mM MgCl2, 10 μM GDP, 0.1% fat free BSA and 0.2 nM GTP [γ-^35S] (1200 Ci/mmol). After incubation in 96 well microtiterplates at RT for 120 min, unbound GTP [γ-^35S] is separated by a centrifugation step. Luminescence of SPA beads triggered by membrane bound GTP [γ-^35S] is quantified with a TOPcount plate reader (Packard). EC50s are calculated using standard curve fitting software.

[3] = target: T2, human S1P receptors (S1P4) (Homo sapiens, UniProt O95977); assay: S1P receptor profiling, GTP[γ-35S] binding SPA, S1P4; assay type: biochemical; parameters: key to S1P4 mode of action (Agon = agonist): Agon = agonist; conditions: for EC50: GTP[γ-35S] binding, membranes of transfected CHO or RH7777 cells; for S1P4 mode of action (Agon = agonist): column beside S1P4 EC50
T2 construct: expressed in transfected cells
T2 sequence (O95977 1-384): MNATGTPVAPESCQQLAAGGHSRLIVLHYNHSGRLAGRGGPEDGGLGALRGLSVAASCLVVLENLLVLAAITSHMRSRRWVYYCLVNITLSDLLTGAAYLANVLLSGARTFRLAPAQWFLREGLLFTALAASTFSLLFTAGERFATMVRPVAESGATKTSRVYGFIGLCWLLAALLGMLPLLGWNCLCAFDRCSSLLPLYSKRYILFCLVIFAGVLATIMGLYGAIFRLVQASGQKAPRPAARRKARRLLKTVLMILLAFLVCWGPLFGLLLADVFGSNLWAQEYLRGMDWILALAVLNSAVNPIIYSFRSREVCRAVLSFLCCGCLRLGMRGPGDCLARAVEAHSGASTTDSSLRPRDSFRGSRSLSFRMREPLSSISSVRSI
Protocol: as §1, §2, §3

[4] = target: T3, human S1P receptors (S1P3) (Homo sapiens, UniProt Q99500); assay: S1P receptor profiling, GTP[γ-35S] binding SPA, S1P3; assay type: biochemical; parameters: key to S1P3 mode of action (Agon = agonist): Agon = agonist; conditions: for EC50: GTP[γ-35S] binding, membranes of transfected CHO or RH7777 cells
T3 construct: expressed in transfected cells
Protocol: as §1, §2, §3

[5] = target: T4, human S1P receptors (S1P2) (Homo sapiens, UniProt O95136); assay: S1P receptor profiling, GTP[γ-35S] binding SPA, S1P2; assay type: biochemical; conditions: membranes of transfected CHO or RH7777 cells
T4 construct: expressed in transfected cells
Protocol: as §1, §2, §3

[6] = target: T5, human S1P receptors (S1P1) (Homo sapiens, UniProt P21453); assay: S1P receptor profiling, GTP[γ-35S] binding SPA, S1P1; assay type: biochemical; parameters: key to S1P1 mode of action (Agon = agonist): Agon = agonist; conditions: for EC50: GTP[γ-35S] binding, membranes of transfected CHO or RH7777 cells
T5 construct: expressed in transfected cells
Protocol: as §1, §2, §3

T5 sequence (P21453 whole entry): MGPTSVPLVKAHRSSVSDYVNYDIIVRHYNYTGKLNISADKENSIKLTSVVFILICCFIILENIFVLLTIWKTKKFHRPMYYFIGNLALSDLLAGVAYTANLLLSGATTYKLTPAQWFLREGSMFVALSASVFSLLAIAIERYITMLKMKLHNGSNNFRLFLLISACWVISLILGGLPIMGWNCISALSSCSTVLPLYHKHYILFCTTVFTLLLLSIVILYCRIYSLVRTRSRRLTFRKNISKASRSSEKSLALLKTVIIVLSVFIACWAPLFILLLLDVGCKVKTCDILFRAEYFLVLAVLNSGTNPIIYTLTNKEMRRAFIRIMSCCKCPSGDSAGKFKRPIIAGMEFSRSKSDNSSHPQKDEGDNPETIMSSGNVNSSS
T1 sequence (Q9H228 whole entry): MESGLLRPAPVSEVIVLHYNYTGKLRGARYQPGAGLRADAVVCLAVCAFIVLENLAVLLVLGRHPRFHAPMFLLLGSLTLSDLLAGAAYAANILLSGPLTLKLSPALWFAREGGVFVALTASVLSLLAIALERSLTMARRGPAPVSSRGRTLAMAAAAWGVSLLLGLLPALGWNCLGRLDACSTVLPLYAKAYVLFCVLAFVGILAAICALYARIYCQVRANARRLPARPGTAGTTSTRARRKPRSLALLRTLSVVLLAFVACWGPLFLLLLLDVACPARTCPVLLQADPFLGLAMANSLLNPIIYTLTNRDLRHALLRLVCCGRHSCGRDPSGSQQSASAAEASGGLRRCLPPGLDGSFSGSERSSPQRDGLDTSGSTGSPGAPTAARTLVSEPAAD
T3 sequence (Q99500 whole entry): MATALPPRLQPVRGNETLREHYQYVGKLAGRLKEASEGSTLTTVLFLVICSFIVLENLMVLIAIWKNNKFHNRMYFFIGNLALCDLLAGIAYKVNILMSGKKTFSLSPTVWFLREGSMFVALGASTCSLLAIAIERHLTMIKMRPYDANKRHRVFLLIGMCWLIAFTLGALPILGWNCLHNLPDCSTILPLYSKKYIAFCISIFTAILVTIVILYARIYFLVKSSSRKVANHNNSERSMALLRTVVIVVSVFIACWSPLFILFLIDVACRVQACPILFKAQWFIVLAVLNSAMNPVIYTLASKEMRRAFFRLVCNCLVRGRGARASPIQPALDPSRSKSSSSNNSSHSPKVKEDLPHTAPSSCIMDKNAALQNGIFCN
T4 sequence (O95136 whole entry): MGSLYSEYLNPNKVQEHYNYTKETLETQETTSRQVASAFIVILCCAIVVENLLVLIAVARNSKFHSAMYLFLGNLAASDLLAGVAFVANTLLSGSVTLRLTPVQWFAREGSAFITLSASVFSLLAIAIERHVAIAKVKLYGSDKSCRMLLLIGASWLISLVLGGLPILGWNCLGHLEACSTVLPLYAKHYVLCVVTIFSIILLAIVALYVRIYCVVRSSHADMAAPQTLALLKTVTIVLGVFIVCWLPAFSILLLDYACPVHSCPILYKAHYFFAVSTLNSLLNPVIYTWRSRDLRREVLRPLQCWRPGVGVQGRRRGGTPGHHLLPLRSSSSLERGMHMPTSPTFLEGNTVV

Row | Structure (SMILES) | melting point [°C] | dose giving depletion of peripheral blood lymphocytes by more than 50% ([1]; after 6 h) [mg/kg] | dose giving depletion of peripheral blood lymphocytes by more than 50% ([1]; after 24 h) [mg/kg] | EC50 [2] [nM] | S1P5 mode of action (Agon = agonist) [2] | EC50 [3] [nM] | S1P4 mode of action (Agon = agonist) [3] | EC50 [4] [nM] | EC50 [5] [nM] | S1P1 mode of action (Agon = agonist) [6] | EC50 [6] [nM] | S1P3 mode of action (Agon = agonist) ([4]; column beside S1P3 EC50)
1 | C[C@](N)(CO)CCc1ccc(OCCCC(F)(F)C(F)(F)F)cc1 (as salt: hydrochloride) [Example 1, (R)-2-Amino-2-methyl-4-[4-(4,4,5,5,5-pentafluoro-pentyloxy)-phenyl]-butan-1-ol Hydrochloride] | 186 to 189 |  |  |  |  |  |  |  |  |  |  | 
2 | C[C@](N)(CO)CCc1ccc(OCCCCCF)cc1 (as salt: hydrochloride) [Example 2, (R)-2-Amino-2-methyl-4-[4-(5-fluoro-pentyloxy)-phenyl]-butan-1-ol Hydrochloride] | 143 to 146 |  |  |  |  |  |  |  |  |  |  | 
3 | C[C@](N)(CO)CCc1ccc(OCCCC(F)(F)C(F)(F)F)cc1 [Example 1, (R)-2-Amino-2-methyl-4-[4-(4,4,5,5,5-pentafluoro-pentyloxy)-phenyl]-butan-1-ol Hydrochloride] |  | 0.2 | 0.1 |  |  |  |  |  |  |  |  | 
4 | C[C@@](N)(CCc1ccc(OCCCC(F)(F)C(F)(F)F)cc1)COP(=O)(O)O [Example 34, Mono-(R)-2-Amino-2-methyl-4-[4-(4,4,5,5,5-pentafluoro-pentyloxy)-phenyl]-but-2-yl phosphate] | 229 to 231 |  |  | 0.9 | Agon | 15.3 | Agon | > 10000 | > 10000 | Agon | 16.1 | 
5 | C[C@@](N)(CCc1ccc(OCCCCCF)cc1)COP(=O)(O)O [Example 35, Mono-(R)-2-Amino-2-methyl-4-[4-(5-fluoro-pentyloxy)-phenyl]-but-2-yl phosphate] | 237 to 241 |  |  |  |  |  |  |  |  |  |  | 
6 | CC(N)(CCc1ccc(OCCc2ccc3ccccc3c2)cc1)COP(=O)(O)O (stereo not drawn) [Example 42] |  |  |  | 21.7 | Agon | 1.8 | Agon | > 10000 | > 10000 | Agon | 4.1 | 
7 | C[C@@](N)(CCc1ccc(C(=O)CCc2ccc(-c3ccccc3)cc2)cc1)COP(=O)(O)O [Example 50] |  |  |  | 1.5 | Agon | > 10000 |  | 196 | > 10000 | Agon | 0.3 | Agon
8 | COc1ccc(CCOc2ccc(CCC(N)(CO)COP(=O)(O)O)cc2)cc1F (stereo not drawn) [Example 94] |  |  |  | 4.9 | Agon |  |  | > 10000 | > 10000 | Agon | 12.2 | 
